The values below come from ChEMBL document CHEMBL6074662, “Antibacterial, Antibiofilm, and Anti-inflammatory Effects of a Novel Thrombin-Derived Peptide in Sepsis Models: Insights into Underlying Mechanisms” (J Med Chem, 2024).

As usually defined, the MIC is the lowest concentration found to suppress growth. Read a high MIC as a need for much substance.

Series [1] relates to Pseudomonas aeruginosa. The experiment in a line: Antibacterial activity against multi-drug resistant Pseudomonas aeruginosa CCARM 2095 incubated for 24 hrs by broth microdilution method. In kind it is functional. (Broth dilution looks for growth in wells or tubes with falling amounts of substance.)
In series [2] the test system is Staphylococcus aureus. Description: Antibacterial activity against methicillin-resistant Staphylococcus aureus CCARM 3089 incubated for 24 hrs by broth microdilution method. In kind it is functional.
The test system of series [3] is Acinetobacter baumannii. Description: Antibacterial activity against carbapenem-resistant Acinetobacter baumannii NMS 1707 incubated for 24 hrs by CLSI based broth microdilution method. In kind it is functional.
Series [4] deals with Staphylococcus aureus. Description: Antibacterial activity against methicillin-resistant Staphylococcus aureus CCARM 3090 incubated for 24 hrs by CLSI based broth microdilution method. In kind it is functional.
In another series the test system is Enterococcus faecium. Description: Antibacterial activity against vancomycin-resistant Enterococcus faecium ATCC 51559 incubated for 24 hrs by CLSI based broth microdilution method. Format: functional.
Series [5] deals with Acinetobacter baumannii. Description: Antibacterial activity against carbapenem-resistant Acinetobacter baumannii NMS 1915 incubated for 24 hrs by CLSI based broth microdilution method. Format: functional.
Series [6] has as its system Pseudomonas aeruginosa. Description: Antibacterial activity against multidrug-resistant Pseudomonas aeruginosa CCARM 2109 incubated for 24 hrs by CLSI based broth microdilution method. Format: functional.
Series [7] has as its system Staphylococcus aureus. The experiment in a line: Antibacterial activity against methicillin-resistant Staphylococcus aureus CCARM 3089 incubated for 24 hrs by CLSI based broth microdilution method. In kind it is functional.
A further series deals with Escherichia coli. Description: Antibacterial activity against Escherichia coli KCTC 1682 incubated for 24 hrs by CLSI based broth microdilution method. In kind it is functional.
The subject of series [8] is Acinetobacter baumannii. Description: Antibacterial activity against multidrug-resistant Acinetobacter baumannii 329-53 incubated for 24 hrs by CLSI based broth microdilution method. In kind it is functional.
Series [9] relates to Staphylococcus epidermidis. Description: Antibacterial activity against Staphylococcus epidermidis KCTC 1917 incubated for 24 hrs by CLSI based broth microdilution method. In kind it is functional.
For series [10], the system named is Pseudomonas aeruginosa. Description: Antibacterial activity against Pseudomonas aeruginosa KCTC 1637 incubated for 24 hrs by CLSI based broth microdilution method. Format: functional.
Series [11] has as its system Staphylococcus aureus. The experiment in a line: Antibacterial activity against Staphylococcus aureus KCTC 1621 incubated for 24 hrs by CLSI based broth microdilution method. In kind it is functional.
A short description of series [12]: Hemolytic activity in sheep RBC incubated for 1 hr by absorbance based assay. In kind it is toxicity, cell-based, Ovis aries. The conditions noted are these: erythrocyte.
A short description of series [13]: Effect on secondary structure of drug in TFE assessed as fold increase in formation of alpha-helical conformation at 150 uM by CD analysis relative to HVF18. Format: physicochemical.
A short description of series [14]: Effect on secondary structure of drug in LPS assessed as fold increase in formation of alpha-helical conformation at 150 uM by CD analysis relative to HVF18. In kind it is physicochemical.
Series [15] relates to Staphylococcus aureus. The experiment in a line: Antibacterial activity against methicillin-resistant Staphylococcus aureus CCARM 3095 incubated for 24 hrs by CLSI based broth microdilution method. Format: functional.
The nature of series [16]: Effect on secondary structure of drug in PBS assessed as formation of random coil structure at 150 uM by CD analysis. Format: physicochemical. The conditions noted are these: buffer.
Series [17] can be described thus: Hydrophobicity of compound assessed as retention time by RP-HPLC analysis. In kind it is physicochemical.
In a further series the test system is Salmonella typhimurium. The experiment in a line: Antibacterial activity against Salmonella typhimurium KCTC 1926 incubated for 24 hrs by CLSI based broth microdilution method. In kind it is functional, Salmonella enterica subsp. enterica serovar Typhimurium. The note with it: Salmonella enterica.
Series [18] relates to Acinetobacter baumannii. Description: Antibacterial activity against multidrug-resistant Acinetobacter baumannii 329-97 incubated for 24 hrs by CLSI based broth microdilution method. Format: functional.
Series [19] concerns Acinetobacter baumannii. Description: Antibacterial activity against carbapenem-resistant Acinetobacter baumannii CCARM 12005 incubated for 24 hrs by CLSI based broth microdilution method. In kind it is functional.
Series [20] in a line: Hemolytic activity in sheep RBC at 256 uM incubated for 1 hr by absorbance based assay. The conditions noted are these: sheep red blood cells, read-out: Activity. In kind it is toxicity, cell-based, Ovis aries, Erythrocyte.
The subject of series [21] is Pseudomonas aeruginosa. Description: Antibacterial activity against multidrug-resistant Pseudomonas aeruginosa CCARM 2095 incubated for 24 hrs by CLSI based broth microdilution method. In kind it is functional.
The nature of series [22]: Effect on secondary structure of drug in SDS assessed as fold increase in formation of alpha-helical conformation at 150 uM by CD analysis relative to HVF18. In kind it is physicochemical.
The test system of the next series is Bacillus subtilis. The experiment in a line: Antibacterial activity against Bacillus subtilis KCTC 3068 incubated for 24 hrs by CLSI based broth microdilution method. Format: functional.

Converted amounts (≈) assume the structure as drawn.

`O=C(N[C@H](CO)[C@H](O)c1ccc([N+](=O)[O-])cc1)C(Cl)Cl` [CHLORAMPHENICOL]: the MIC in the series on Pseudomonas aeruginosa [1] worked out at 4100 µM (≈ 1320 µg/mL); in the series on Staphylococcus aureus [2], 1020 µM (≈ 331 µg/mL).

Regarding H-GVFRLKKWIQKVIKQWGK-NH2, the MIC against Acinetobacter baumannii [3] stood at 2 µM; against Staphylococcus aureus [4] it was 8 µM; in the series on Enterococcus faecium it was 8 µM; with Acinetobacter baumannii [5] it was 2 µM; in the series with Pseudomonas aeruginosa [6] it was 16 µM; in the series on Staphylococcus aureus [7], 8 µM. Also, the MIC in the series on Escherichia coli came to 8 µM; with Acinetobacter baumannii [8], 8 µM; in series [9], 4 µM; in the series on Pseudomonas aeruginosa [10], 8 µM; in the series with Staphylococcus aureus [11] it was 8 µM; against Staphylococcus aureus [15], 8 µM. For the same molecule, the MIC against Salmonella typhimurium is 4 µM; in the series on Acinetobacter baumannii [18] it was 1 µM; against Acinetobacter baumannii [19] it was 4 µM; against Pseudomonas aeruginosa [21] it was 4 µM; in the series on Bacillus subtilis, 4 µM. Moreover, the HC10 in [12] was determined as 212 µM. The “fold change (FC)” value in series [13], in series [14] and in series [22] was ~ 5 throughout. In [16], the result was Active. Further, in series [17], the Retention_time is 25.16 min. Moreover, the hemolysis at 1 h, 256 µM in [20] was 12.2%.

For the molecule H-GVFRLKKWIQKVIRQWGR-NH2, the MIC against Acinetobacter baumannii [3] was 2 µM; with Staphylococcus aureus [4], 8 µM; with Enterococcus faecium it was 8 µM; against Acinetobacter baumannii [5] it was 2 µM; against Pseudomonas aeruginosa [6], 16 µM; with Staphylococcus aureus [7], 8 µM. The MIC in the series on Escherichia coli worked out at 8 µM; in the series on Acinetobacter baumannii [8], 4 µM; in series [9] it was 4 µM; against Pseudomonas aeruginosa [10], 8 µM; in the series on Staphylococcus aureus [11] it was 8 µM; in the series with Staphylococcus aureus [15], 4 µM. Also, the MIC against Salmonella typhimurium worked out at 4 µM; with Acinetobacter baumannii [18], 2 µM; in the series with Acinetobacter baumannii [19], 4 µM; in the series with Pseudomonas aeruginosa [21], 2 µM; against Bacillus subtilis it was 2 µM. Further, the HC10 in [12] turned out to be 122 µM. The “fold change (FC)” value in [13], in series [14] and in series [22] was ~ 5 each time. Besides, the outcome in series [16] was Active. The Retention_time in series [17] is listed as 25.15 min. Further, the hemolysis at 1 h, 256 µM in [20] is 21.2%.

For H-GVFRLKKWIRKVIRRWGR-NH2, the MIC in the series on Acinetobacter baumannii [3] came to 8 µM; in the series with Staphylococcus aureus [4] it was 4 µM; against Enterococcus faecium, 4 µM; in the series with Acinetobacter baumannii [5], 4 µM; with Pseudomonas aeruginosa [6], 16 µM; in the series with Staphylococcus aureus [7] it was 4 µM. For the same molecule, the MIC against Escherichia coli worked out at 16 µM; in the series on Acinetobacter baumannii [8] it was 8 µM; in series [9] it was 8 µM; in the series with Pseudomonas aeruginosa [10], 8 µM; with Staphylococcus aureus [11], 8 µM; in the series on Staphylococcus aureus [15], 8 µM. The MIC against Salmonella typhimurium amounted to 4 µM; against Acinetobacter baumannii [18], 2 µM; with Acinetobacter baumannii [19], 8 µM; in the series with Pseudomonas aeruginosa [21], 2 µM; with Bacillus subtilis it was 4 µM. In series [12], the HC10 was 116 µM. In addition, the “fold change (FC)” value in series [13], in series [14] and in series [22] was ~ 5 each time. For the same molecule, the result in series [16] was Active. Besides, the Retention_time in series [17] is 22.99 min. Besides, the hemolysis at 1 h, 256 µM in series [20] amounted to 20.4%.

Regarding H-HVFRLKKWIQKVIDQFGE-OH, the MIC with Acinetobacter baumannii [3] was 32 µM; in the series on Staphylococcus aureus [4], over 128 µM; against Enterococcus faecium, over 128 µM; with Acinetobacter baumannii [5], 64 µM; against Pseudomonas aeruginosa [6] it was over 128 µM; against Staphylococcus aureus [7] it was over 128 µM. The MIC in the series with Escherichia coli was 32 µM; against Acinetobacter baumannii [8] it was 4 µM; in series [9], 16 µM; with Pseudomonas aeruginosa [10], 128 µM; in the series on Staphylococcus aureus [11] it was 128 µM; against Staphylococcus aureus [15], over 128 µM. Further, the MIC in the series with Salmonella typhimurium is 32 µM; against Acinetobacter baumannii [18], 4 µM; in the series with Acinetobacter baumannii [19], 4 µM; against Pseudomonas aeruginosa [21] it was 128 µM; with Bacillus subtilis it was 32 µM. Further, the HC10 in [12] was over 256 µM. Moreover, in series [17], the Retention_time is recorded as 25.53 min. For the same molecule, in series [20], the hemolysis at 1 h, 256 µM was determined as 7.8%.
